{"source": "patent US6852673B2", "about": "“Herbicidal pyridine compounds” (BASF Aktiengesellschaft, priority 1998, dated 2005)", "format_in_all_cases": "in vivo", "key": {"[1]": {"system": "Ambrosia artemiisifolia (AMBEL)", "assay": "Post-emergence herbicidal evaluation, ragweed", "conditions": "rated 2 to 4 weeks after treatment", "experimental": "(§1) [table] [table] […] These acetone solutions are diluted with water and the resulting formulations applied at dosage levels equivalent of about 0.03 to 0.4 kg per hectare of test compound per pot. After spraying the plants are placed on greenhouse benches and are cared for in the usual manner, commensurate with conventional greenhouse practices. From 2 to 4 weeks after treatment, the seedling plants are examined and rated according to the rating system provided above. A rating 0 indicates growth as untreated control, a rating 9 indicates death."}, "[2]": {"system": "Digitaria sanguinalis (DIGSA)", "assay": "Post-emergence herbicidal evaluation, large crabgrass", "conditions": "rated 2 to 4 weeks after treatment", "experimental": "as §1"}, "[3]": {"system": "Alopecurus myosuroides (ALOMY)", "assay": "Post-emergence herbicidal evaluation, black grass", "conditions": "rated 2 to 4 weeks after treatment", "experimental": "as §1"}, "[4]": {"system": "Echinochloa grus galli (ECHCG)", "assay": "Post-emergence herbicidal evaluation, barnyard grass", "conditions": "rated 2 to 4 weeks after treatment", "experimental": "as §1"}, "Stellaria media (STEME) [5]": {"system": "Stellaria media (STEME)", "assay": "Post-emergence herbicidal evaluation, chickweed", "conditions": "rated 2 to 4 weeks after treatment", "experimental": "as §1"}, "Zea mays (ZEAMX) [6]": {"system": "Zea mays (ZEAMX)", "assay": "Post-emergence herbicidal evaluation, maize", "conditions": "rated 2 to 4 weeks after treatment", "experimental": "as §1"}, "Stellaria media (STEME) [7]": {"system": "Stellaria media (STEME)", "assay": "Pre-emergence herbicidal evaluation, chickweed", "excerpt": "(§2) The pre-emergence herbicidal activity of the compounds of the present invention is exemplified by the following test in which the seeds of a variety of monocotyledonous and dicotyledonous plants are seperately mixed with potting soil and planted on top of approximately one inch of soil in separate pots. After planting, the pots are sprayed with the selected aqueous acetone solution containing test compound in sufficient quantity to provide the equivalent of about 0.0125 to 0.4 kg per hectare of test compound per pot. The treated pots are then placed on greenhouse benches, watered and cared for in accordance with conventional greenhouse procedures. From 2 to 4 weeks after treatment, the tests are terminated and each pot is examined and rated according to the rating system set forth below."}, "Galium aparine (GALAP)": {"system": "Galium aparine (GALAP)", "assay": "Pre-emergence herbicidal evaluation, cleaver", "excerpt": "as §2"}, "Glycine max (GLXMA)": {"system": "Glycine max (GLXMA)", "assay": "Pre-emergence herbicidal evaluation, soyabeans", "excerpt": "as §2"}, "Lamium purpureum (LAMPU)": {"system": "Lamium purpureum (LAMPU)", "assay": "Pre-emergence herbicidal evaluation, purple deadnettle", "excerpt": "as §2"}, "Zea mays (ZEAMX) [8]": {"system": "Zea mays (ZEAMX)", "assay": "Pre-emergence herbicidal evaluation, maize", "excerpt": "as §2"}, "Solanum nigrum (SOLNI)": {"system": "Solanum nigrum (SOLNI)", "assay": "Pre-emergence herbicidal evaluation, black nightshade", "excerpt": "as §2"}, "[9]": {"system": "Ipomoea hederacea (IPOHE)", "assay": "Pre-emergence herbicidal evaluation, morning glory", "excerpt": "as §2"}, "[10]": {"system": "Digitaria sanguinalis (DIGSA)", "assay": "Pre-emergence herbicidal evaluation, large crabgrass", "excerpt": "as §2"}, "[11]": {"system": "Triticum aestivum (TRZAW)", "assay": "Pre-emergence herbicidal evaluation, winter wheat", "excerpt": "as §2"}, "[12]": {"system": "Alopecurus myosuroides (ALOMY)", "assay": "Pre-emergence herbicidal evaluation, black grass", "excerpt": "as §2"}}}
{"smiles": "Cc1cc(OCC(F)(F)C(F)(F)F)nc(Oc2cc(C(F)(F)F)nn2C)c1", "note": "[Example 7]", "values": [{"measurement": "AMBEL rating", "setting": "[1]; dose 0.03 kg/ha", "value": "1 (1 - Trace effect)"}, {"measurement": "AMBEL rating", "setting": "[1]; dose 0.1 kg/ha", "value": "2 (2 - Slight effect)"}, {"measurement": "AMBEL rating", "setting": "[1]; dose 0.4 kg/ha", "value": "5 (5 - Definite injury)"}, {"measurement": "DIGSA rating", "setting": "[2]; dose 0.03 kg/ha", "value": "2 (2 - Slight effect)"}, {"measurement": "DIGSA rating", "setting": "[2]; dose 0.1 kg/ha", "value": "9 (9 - Complete kill)"}, {"measurement": "DIGSA rating", "setting": "[2]; dose 0.4 kg/ha", "value": "9 (9 - Complete kill)"}, {"measurement": "ALOMY rating", "setting": "[3]; dose 0.03 kg/ha", "value": "2 (2 - Slight effect)"}, {"measurement": "ALOMY rating", "setting": "[3]; dose 0.1 kg/ha", "value": "4 (4 - Injury)"}, {"measurement": "ALOMY rating", "setting": "[3]; dose 0.4 kg/ha", "value": "5 (5 - Definite injury)"}, {"measurement": "ECHCG rating", "setting": "[4]; dose 0.03 kg/ha", "value": "4 (4 - Injury)"}, {"measurement": "ECHCG rating", "setting": "[4]; dose 0.1 kg/ha", "value": "7 (7 - Good herbicidal effect)"}, {"measurement": "ECHCG rating", "setting": "[4]; dose 0.4 kg/ha", "value": "7 (7 - Good herbicidal effect)"}, {"measurement": "STEME rating", "setting": "Stellaria media (STEME) [5]; dose 0.03 kg/ha", "value": "2 (2 - Slight effect)"}, {"measurement": "STEME rating", "setting": "Stellaria media (STEME) [5]; dose 0.1 kg/ha", "value": "5 (5 - Definite injury)"}, {"measurement": "STEME rating", "setting": "Stellaria media (STEME) [5]; dose 0.4 kg/ha", "value": "5 (5 - Definite injury)"}, {"measurement": "ZEAMX rating", "setting": "Zea mays (ZEAMX) [6]; dose 0.03 kg/ha", "value": "2 (2 - Slight effect)"}, {"measurement": "ZEAMX rating", "setting": "Zea mays (ZEAMX) [6]; dose 0.1 kg/ha", "value": "2 (2 - Slight effect)"}, {"measurement": "ZEAMX rating", "setting": "Zea mays (ZEAMX) [6]; dose 0.4 kg/ha", "value": "3 (3 - Moderate effect)"}, {"measurement": "STEME rating", "setting": "Stellaria media (STEME) [7]; dose 0.025 kg/ha", "value": "5 (5 - Definite injury)"}, {"measurement": "STEME rating", "setting": "Stellaria media (STEME) [7]; dose 0.1 kg/ha", "value": "7 (7 - Good herbicidal effect)"}, {"measurement": "STEME rating", "setting": "Stellaria media (STEME) [7]; dose 0.4 kg/ha", "value": "8 (8 - Approaching complete kill)"}, {"measurement": "GALAP rating", "setting": "Galium aparine (GALAP); dose 0.013 kg/ha", "value": "0 (0 - No effect)"}, {"measurement": "GALAP rating", "setting": "Galium aparine (GALAP); dose 0.025 kg/ha", "value": "0 (0 - No effect)"}, {"measurement": "GALAP rating", "setting": "Galium aparine (GALAP); dose 0.1 kg/ha", "value": "1 (1 - Trace effect)"}, {"measurement": "GALAP rating", "setting": "Galium aparine (GALAP); dose 0.4 kg/ha", "value": "2 (2 - Slight effect)"}, {"measurement": "selectivity in soybeans", "setting": "Glycine max (GLXMA)", "value": "quite selective"}, {"measurement": "GLXMA rating", "setting": "Glycine max (GLXMA); dose 0.013 kg/ha", "value": "0 (0 - No effect)"}, {"measurement": "GLXMA rating", "setting": "Glycine max (GLXMA); dose 0.025 kg/ha", "value": "0 (0 - No effect)"}, {"measurement": "GLXMA rating", "setting": "Glycine max (GLXMA); dose 0.1 kg/ha", "value": "2 (2 - Slight effect)"}, {"measurement": "GLXMA rating", "setting": "Glycine max (GLXMA); dose 0.4 kg/ha", "value": "3 (3 - Moderate effect)"}, {"measurement": "LAMPU rating", "setting": "Lamium purpureum (LAMPU); dose 0.025 kg/ha", "value": "6 (6 - Herbicidal effect)"}, {"measurement": "LAMPU rating", "setting": "Lamium purpureum (LAMPU); dose 0.1 kg/ha", "value": "8 (8 - Approaching complete kill)"}, {"measurement": "LAMPU rating", "setting": "Lamium purpureum (LAMPU); dose 0.4 kg/ha", "value": "9 (9 - Complete kill)"}, {"measurement": "selectivity in maize", "setting": "Zea mays (ZEAMX) [8]", "value": "good selectivity"}, {"measurement": "ZEAMX rating", "setting": "Zea mays (ZEAMX) [8]; dose 0.013 kg/ha", "value": "0 (0 - No effect)"}, {"measurement": "ZEAMX rating", "setting": "Zea mays (ZEAMX) [8]; dose 0.025 kg/ha", "value": "0 (0 - No effect)"}, {"measurement": "ZEAMX rating", "setting": "Zea mays (ZEAMX) [8]; dose 0.1 kg/ha", "value": "0 (0 - No effect)"}, {"measurement": "ZEAMX rating", "setting": "Zea mays (ZEAMX) [8]; dose 0.4 kg/ha", "value": "2 (2 - Slight effect)"}, {"measurement": "SOLNI rating", "setting": "Solanum nigrum (SOLNI); dose 0.013 kg/ha", "value": "0 (0 - No effect)"}, {"measurement": "SOLNI rating", "setting": "Solanum nigrum (SOLNI); dose 0.025 kg/ha", "value": "1 (1 - Trace effect)"}, {"measurement": "SOLNI rating", "setting": "Solanum nigrum (SOLNI); dose 0.1 kg/ha", "value": "4 (4 - Injury)"}, {"measurement": "SOLNI rating", "setting": "Solanum nigrum (SOLNI); dose 0.4 kg/ha", "value": "9 (9 - Complete kill)"}, {"measurement": "IPOHE rating", "setting": "[9]; dose 0.025 kg/ha", "value": "1 (1 - Trace effect)"}, {"measurement": "IPOHE rating", "setting": "[9]; dose 0.1 kg/ha", "value": "2 (2 - Slight effect)"}, {"measurement": "IPOHE rating", "setting": "[9]; dose 0.4 kg/ha", "value": "5 (5 - Definite injury)"}, {"measurement": "DIGSA rating", "setting": "[10]; dose 0.013 kg/ha", "value": "0 (0 - No effect)"}, {"measurement": "DIGSA rating", "setting": "[10]; dose 0.025 kg/ha", "value": "1 (1 - Trace effect)"}, {"measurement": "DIGSA rating", "setting": "[10]; dose 0.1 kg/ha", "value": "6 (6 - Herbicidal effect)"}, {"measurement": "DIGSA rating", "setting": "[10]; dose 0.4 kg/ha", "value": "8 (8 - Approaching complete kill)"}, {"measurement": "TRZAW rating", "setting": "[11]; dose 0.013 kg/ha", "value": "0 (0 - No effect)"}, {"measurement": "TRZAW rating", "setting": "[11]; dose 0.025 kg/ha", "value": "0 (0 - No effect)"}, {"measurement": "TRZAW rating", "setting": "[11]; dose 0.1 kg/ha", "value": "1 (1 - Trace effect)"}, {"measurement": "TRZAW rating", "setting": "[11]; dose 0.4 kg/ha", "value": "2 (2 - Slight effect)"}, {"measurement": "ALOMY rating", "setting": "[12]; dose 0.013 kg/ha", "value": "0 (0 - No effect)"}, {"measurement": "ALOMY rating", "setting": "[12]; dose 0.025 kg/ha", "value": "1 (1 - Trace effect)"}, {"measurement": "ALOMY rating", "setting": "[12]; dose 0.1 kg/ha", "value": "4 (4 - Injury)"}, {"measurement": "ALOMY rating", "setting": "[12]; dose 0.4 kg/ha", "value": "9 (9 - Complete kill)"}]}
